# According to US7759496B2, “Imidazole derivatives having affinity for alpha 2 receptors activity” (Orion Corporation, priority 2002, dated 2010):
# Like-named read-outs stand apart in the source and are kept apart here.
# Assays:
# serum esterases = assay: Enzymatic hydrolysis in 80% human serum; type: in vitro ADME; details: pH 7.4, 37° C., read-out: t1/2 (min) 80% human serum (pH 7.4)
# Procedure: To exert the pharmacological effect in the body, a prodrug should be enzymatically degraded to the parent drug. Therefore, the susceptibility of the compounds to serum esterases was evaluated.
# An appropriate amount of the test compound was dissolved in one volume (e.g. 1 ml) of phosphate buffer (0.16 M, μ=0.5, pH 7.4) at 37° C. Four volumes (e.g. 4 ml) of pre-heated human serum were added and the solutions were mixed in a water bath at 37° C. (initial concentrations were 0.2-0.5 mM). At suitable intervals, 300 μl aliquots were withdrawn and deproteinated with 600 μl of acetonitrile. After mixing and centrifugation, 600 μl of the supernatant was evaporated to dryness under a stream of air at 40° C. The residue was re-dissolved in 300 μl of the mobile phase and analyzed by HPLC. The pseudo-first-order half-life (t1/2) was calculated from the linear slopes of semi-logarithmic plots of remaining compound over time. Also the formation of the parent drug was determined.
# normotensive rabbits = assay: IOP study in rabbits; type: in vivo, rabbit; details: for Intraocular pressure (IOP) change: mean ± SE, n = 5-6
# Procedure: The IOP lowering effect of the prodrug was also compared to the effect of MPV-2426.
# To perform the IOP test, a rabbit was placed in a plastic restraining box located in a quiet room. A single drop (25 μl) of the test solution was instilled unilaterally into its left eye on the upper corneoscleral limbus. During installation, the upper eyelid was pulled slightly away from the globe. IOP was measured using a BioRad (Cambridge, Mass.) Digilab Modular One Pneumatonometer. Before each measurement one or two drops of oxybuprocaine (0.06%) were applied to the cornea before tonometry to eliminate discomfort. The upper and lower eyelids were then gently retracted, and the applanation sensor was brought into contact with the center of the cornea. For each
# determination at least two readings were taken from each treated (ipsilateral) and untreated (contralateral) eye, and the mean of these readings was used. IOP of the rabbits was measured at 2, 1, and 0 h before and at 0.5, 1, 2, 3, 4 and 5 h after eyedrop administration. IOP at the time of eyedrop administration (0 h) was used as a baseline value. All studies were set up using a masked and randomized crossover design. At least 72 h washout time was allowed for each rabbit between each dosing. Results
# [1] = Chemical stability in phosphate buffer at 37° C.; type: physicochemical
# Procedure: An appropriate amount of the test compound (initial concentrations were 0.1-0.4 mM) was dissolved in pre-heated phosphate buffer (0.16 M, μ=0.5, pH 7.4 or pH 5.0). The solution was placed in a thermostated water bath at 37° C. and aliquots were taken at suitable intervals and analyzed by HPLC to determine the degradation rate of the compound. The pseudo-first-order half-life (t1/2) was calculated from the linear slopes of semi-logarithmic plots of remaining compound over time.
# [2] = topical unilateral administration
smiles,measurement,setting,value
"CC(C)(C)C(=O)Oc1ccc2c(c1)C(Cc1c[nH]cn1)CC2.Cl (stereo not shown) [example 3, 4-[6-(2,2-Dimethylpropanoyloxy)indan-1-ylmethyl]-1H-imidazol-1-ium chloride]",half-life,serum esterases,30 min
same,IOP lowering potency compared to an equimolar dose of MPV-2426,normotensive rabbits; [2],increased IOP lowering potency
same,duration of action compared to MPV-2426,normotensive rabbits; [2],prolonged duration of action
same,duration of the IOP lowering effect,"normotensive rabbits; topical unilateral administration, treated eye",lasted from 1 h through the duration of the 5 h experiment
same,Intraocular pressure (IOP) change,"normotensive rabbits; treated eye, 0.1 μg, 0 h",0.0 ± 0.0 mmHg
same,Intraocular pressure (IOP) change,"normotensive rabbits; treated eye, 0.1 μg, 0.5 h",1.7 ± 0.9 mmHg
same,Intraocular pressure (IOP) change,"normotensive rabbits; treated eye, 0.1 μg, 1 h",0.2 ± 1.3 mmHg
same,Intraocular pressure (IOP) change,"normotensive rabbits; treated eye, 0.1 μg, 2 h",0.8 ± 1.2 mmHg
same,Intraocular pressure (IOP) change,"normotensive rabbits; treated eye, 0.1 μg, 3 h",0.6 ± 0.6 mmHg
same,Intraocular pressure (IOP) change,"normotensive rabbits; treated eye, 0.1 μg, 4 h",1.8 ± 0.5 mmHg
same,Intraocular pressure (IOP) change,"normotensive rabbits; treated eye, 0.1 μg, 5 h",2.0 ± 0.9 mmHg
same,Intraocular pressure (IOP) change,"normotensive rabbits; treated eye, 1.0 μg, 0 h",0.0 ± 0.0 mmHg
same,Intraocular pressure (IOP) change,"normotensive rabbits; treated eye, 1.0 μg, 0.5 h",−1.0 ± 0.3 mmHg
same,Intraocular pressure (IOP) change,"normotensive rabbits; treated eye, 1.0 μg, 1 h",−3.6 ± 0.7 mmHg
same,Intraocular pressure (IOP) change,"normotensive rabbits; treated eye, 1.0 μg, 2 h",−4.6 ± 1.4 mmHg
same,Intraocular pressure (IOP) change,"normotensive rabbits; treated eye, 1.0 μg, 3 h",−4.3 ± 1.1 mmHg
same,Intraocular pressure (IOP) change,"normotensive rabbits; treated eye, 1.0 μg, 4 h",−2.0 ± 1.4 mmHg
same,Intraocular pressure (IOP) change,"normotensive rabbits; treated eye, 1.0 μg, 5 h",−0.9 ± 1.8 mmHg
same,Intraocular pressure (IOP) change,"normotensive rabbits; treated eye, 2.5 μg, 0 h",0.0 ± 0.0 mmHg
same,Intraocular pressure (IOP) change,"normotensive rabbits; treated eye, 2.5 μg, 0.5 h",0.6 ± 0.9 mmHg
same,Intraocular pressure (IOP) change,"normotensive rabbits; treated eye, 2.5 μg, 1 h",−2.9 ± 1.3 mmHg
same,Intraocular pressure (IOP) change,"normotensive rabbits; treated eye, 2.5 μg, 2 h",−3.3 ± 1.8 mmHg
same,Intraocular pressure (IOP) change,"normotensive rabbits; treated eye, 2.5 μg, 3 h",−1.6 ± 1.7 mmHg
same,Intraocular pressure (IOP) change,"normotensive rabbits; treated eye, 2.5 μg, 4 h",1.0 ± 2.2 mmHg
same,Intraocular pressure (IOP) change,"normotensive rabbits; treated eye, 2.5 μg, 5 h",1.3 ± 1.9 mmHg
same,Intraocular pressure (IOP) change,"normotensive rabbits; treated eye, 3.4 μg (equimolar to 2.5 μg of MPV-2426), 0 h",0.0 ± 0.0 mmHg
same,Intraocular pressure (IOP) change,"normotensive rabbits; treated eye, 3.4 μg (equimolar to 2.5 μg of MPV-2426), 0.5 h",−0.9 ± 0.9 mmHg
same,Intraocular pressure (IOP) change,"normotensive rabbits; treated eye, 3.4 μg (equimolar to 2.5 μg of MPV-2426), 1 h",−2.9 ± 0.5 mmHg
same,Intraocular pressure (IOP) change,"normotensive rabbits; treated eye, 3.4 μg (equimolar to 2.5 μg of MPV-2426), 2 h",−6.5 ± 1.1 mmHg
same,Intraocular pressure (IOP) change,"normotensive rabbits; treated eye, 3.4 μg (equimolar to 2.5 μg of MPV-2426), 3 h",−5.2 ± 1.7 mmHg
same,Intraocular pressure (IOP) change,"normotensive rabbits; treated eye, 3.4 μg (equimolar to 2.5 μg of MPV-2426), 4 h",−3.2 ± 0.9 mmHg
same,Intraocular pressure (IOP) change,"normotensive rabbits; treated eye, 3.4 μg (equimolar to 2.5 μg of MPV-2426), 5 h",−1.4 ± 0.7 mmHg
same,IOP changes in the untreated eyes,normotensive rabbits; untreated (contralateral) eyes,Less significant changes
same,Intraocular pressure (IOP) change,"normotensive rabbits; untreated eye, 0.1 μg, 0 h",0.0 ± 0.0 mmHg
same,Intraocular pressure (IOP) change,"normotensive rabbits; untreated eye, 0.1 μg, 0.5 h",1.4 ± 0.1 mmHg
same,Intraocular pressure (IOP) change,"normotensive rabbits; untreated eye, 0.1 μg, 1 h",0.9 ± 0.5 mmHg
same,Intraocular pressure (IOP) change,"normotensive rabbits; untreated eye, 0.1 μg, 2 h",1.3 ± 0.2 mmHg
same,Intraocular pressure (IOP) change,"normotensive rabbits; untreated eye, 0.1 μg, 3 h",1.3 ± 0.7 mmHg
same,Intraocular pressure (IOP) change,"normotensive rabbits; untreated eye, 0.1 μg, 4 h",1.0 ± 0.9 mmHg
same,Intraocular pressure (IOP) change,"normotensive rabbits; untreated eye, 0.1 μg, 5 h",2.4 ± 1.3 mmHg
same,Intraocular pressure (IOP) change,"normotensive rabbits; untreated eye, 1.0 μg, 0 h",0.0 ± 0.0 mmHg
same,Intraocular pressure (IOP) change,"normotensive rabbits; untreated eye, 1.0 μg, 0.5 h",0.0 ± 1.4 mmHg
same,Intraocular pressure (IOP) change,"normotensive rabbits; untreated eye, 1.0 μg, 1 h",−2.1 ± 1.2 mmHg
same,Intraocular pressure (IOP) change,"normotensive rabbits; untreated eye, 1.0 μg, 2 h",−2.0 ± 1.8 mmHg
same,Intraocular pressure (IOP) change,"normotensive rabbits; untreated eye, 1.0 μg, 3 h",−0.9 ± 2.4 mmHg
same,Intraocular pressure (IOP) change,"normotensive rabbits; untreated eye, 1.0 μg, 4 h",−1.4 ± 0.7 mmHg
same,Intraocular pressure (IOP) change,"normotensive rabbits; untreated eye, 1.0 μg, 5 h",−0.8 ± 2.1 mmHg
same,Intraocular pressure (IOP) change,"normotensive rabbits; untreated eye, 2.5 μg, 0 h",0.0 ± 0.0 mmHg
same,Intraocular pressure (IOP) change,"normotensive rabbits; untreated eye, 2.5 μg, 0.5 h",−0.2 ± 0.9 mmHg
same,Intraocular pressure (IOP) change,"normotensive rabbits; untreated eye, 2.5 μg, 1 h",−0.6 ± 0.7 mmHg
same,Intraocular pressure (IOP) change,"normotensive rabbits; untreated eye, 2.5 μg, 2 h",0.0 ± 1.5 mmHg
same,Intraocular pressure (IOP) change,"normotensive rabbits; untreated eye, 2.5 μg, 3 h",0.1 ± 1.0 mmHg
same,Intraocular pressure (IOP) change,"normotensive rabbits; untreated eye, 2.5 μg, 4 h",1.0 ± 1.8 mmHg
same,Intraocular pressure (IOP) change,"normotensive rabbits; untreated eye, 2.5 μg, 5 h",0.3 ± 1.6 mmHg
same,Intraocular pressure (IOP) change,"normotensive rabbits; untreated eye, 3.4 μg (equimolar to 2.5 μg of MPV-2426), 0 h",0.0 ± 0.0 mmHg
same,Intraocular pressure (IOP) change,"normotensive rabbits; untreated eye, 3.4 μg (equimolar to 2.5 μg of MPV-2426), 0.5 h",0.4 ± 0.7 mmHg
same,Intraocular pressure (IOP) change,"normotensive rabbits; untreated eye, 3.4 μg (equimolar to 2.5 μg of MPV-2426), 1 h",−2.7 ± 0.8 mmHg
same,Intraocular pressure (IOP) change,"normotensive rabbits; untreated eye, 3.4 μg (equimolar to 2.5 μg of MPV-2426), 2 h",−1.3 ± 0.6 mmHg
same,Intraocular pressure (IOP) change,"normotensive rabbits; untreated eye, 3.4 μg (equimolar to 2.5 μg of MPV-2426), 3 h",−2.8 ± 0.8 mmHg
same,Intraocular pressure (IOP) change,"normotensive rabbits; untreated eye, 3.4 μg (equimolar to 2.5 μg of MPV-2426), 4 h",−0.8 ± 0.7 mmHg
same,Intraocular pressure (IOP) change,"normotensive rabbits; untreated eye, 3.4 μg (equimolar to 2.5 μg of MPV-2426), 5 h",−0.8 ± 1.0 mmHg
same,half-life,"[1]; phosphate buffer pH 5.0, 37° C., read-out: t1/2 (d) phosphate buffer pH 5.0 (converted)",310 days
same,half-life,"[1]; phosphate buffer pH 7.4, 37° C., read-out: t1/2 (d) phosphate buffer pH 7.4 (converted)",31 days
same,melting point,,176 to 177 °C
